Source: US20190045784A1 (priority 2016, published 2019)
Like-named read-outs stand apart in the source and are kept apart here.

Key:
Type in all cases: cell-based
Details in all cases: 7 days after inoculation
Phytophthora infestans = tested on: Phytophthora infestans
Botrytis cinerea = experiment: Activity against the grey mold Botrytis cinerea in the microtiter plate test (Botrci)
Septoria tritici = experiment: Activity against leaf blotch on wheat caused by Septoria tritici (Septtr), microtiter test
Alternaria solani = experiment: Activity against early blight caused by Alternaria solani (Alteso), microtiter test

Structure (SMILES): Cn1cc(C(=O)Nc2ccccc2-c2cc(F)c(F)c(F)c2)c(C(F)F)n1 [Fluxapyroxad, fluxapyroxad]
- Observed efficacy (Phytophthora infestans; 0.016 ppm): 2%
- Observed efficacy (Phytophthora infestans; 0.063 ppm): 18%
- Observed efficacy (Botrytis cinerea; 0.016 ppm): 0%
- Observed efficacy (Septoria tritici; 0.000063 ppm): 1%
- Observed efficacy (Septoria tritici; 0.001 ppm): 7%
- Observed efficacy (Septoria tritici; 0.004 ppm): 9%
- Observed efficacy (Septoria tritici; 0.016 ppm): 17%
- Observed efficacy (Alternaria solani; 0.00025 ppm): 7%
- Observed efficacy (Alternaria solani; 0.004 ppm): 31%
- Observed efficacy (Alternaria solani; 0.016 ppm): 69%

Structure (SMILES): Cn1c(=O)c2sc3c(=O)n(C)c(=O)c3sc2c1=O [No. I-2, 2,6-dimethyl-1H,5H-[1,4]dithiino[2,3-c:5,6-c′]dipyrrole-1,3,5,7(2H,6H)-tetraone]
- Observed efficacy (Phytophthora infestans; 0.25 ppm): 0%
- Observed efficacy (Phytophthora infestans; 1 ppm): 28%
- Observed efficacy (Septoria tritici; 0.063 ppm): 35%
- Observed efficacy (Alternaria solani; 0.25 ppm): 14%

Structure (SMILES): Nc1nc(OCc2ccc(F)cc2)ncc1F [No. I-4, 5-fluoro-2-(4-fluorophenylmethoxy)pyrimidin-4 amine]
- Observed efficacy (Alternaria solani; 1 ppm): 0%

Structure (SMILES): Cc1ccc(COc2ncc(F)c(N)n2)cc1 [No. I-5, 5-fluoro-2-(p-tolylmethoxy)pyrimidin-4-amine]
- Observed efficacy (Phytophthora infestans; 16 ppm): 14%
- Observed efficacy (Botrytis cinerea; 16 ppm): 24%
